Patent US5498632A, “Esters of acyl carnitines with long-chain aliphatic alcohols and pharmaceutical compositions containing same having antibacterial activity” (Sigma-Tau Industrie Farmaceutiche Riunite S.p.A., priority 1992, dated 1996)
Read-outs that look alike come from different tables or passages of the source.

Columns and labels:
Type in all cases: cell-based
[1] = tested on: Streptococcus faecalis (501); assay: MIC in broth, Gram+ strains; details: Enterococcus faecalis; S. faecalis (501), Mueller-Hinton broth, 37° C., 18 hours; read-out: Minimal Inhibitory Concentration (MIC)
Procedure: (§1) Evaluation of the Minimal Inhibitory Concentration (MIC) in broth of 15 new substances for Gram+ bacterial strains.
(§2) The following strains were used: Staphylococcus aureus (4); Streptococcus faecalis (8); Bacillus pumilus (1); Bacillus subtilis (1).
(§3) MICs were determined by a standard microdilution test, using serial two-fold dilutions of the substances in Mueller-Hinton broth.
(§4) The inoculum was prepared from an overnight culture in Mueller-Hinton broth matching the 0.5 Mc Farland (turbidity) standard (BRAY W. E., Clinical Laboratory Methods, 5th Ed. C. V. MOSBY, St. Louis, Mo. 1957), and was adjusted to a final concentration of 5.0×10^4 colony-forming units/ml.
(§5) Equal volumes (0.1 ml) of both bacterial suspensions and substance solutions were distributed in microtiter plates (Falcon, 96 wells, round bottom), and then placed in a humidified incubator (37° C.) for 18 hours.
(§6) The results, in terms of MIC values, resistant strain number and mean MIC values versus susceptible strains, are illustrated in Tables 1-6.

[2] = tested on: Staphylococcus aureus (303); assay: MIC in broth, Gram+ strains; details: S. aureus (303), Mueller-Hinton broth, 37° C., 18 hours, read-out: Minimal Inhibitory Concentration (MIC)
Procedure: as §1, §2, §3, §4, §5, §6

[3] = tested on: Streptococcus faecalis (519); assay: MIC in broth, Gram+ strains; details: Enterococcus faecalis; S. faecalis (519), Mueller-Hinton broth, 37° C., 18 hours; read-out: Minimal Inhibitory Concentration (MIC)
Procedure: as §1, §2, §3, §4, §5, §6

[4] = tested on: Streptococcus faecalis (R 2); assay: MIC in broth, Gram+ strains; details: Enterococcus faecalis; S. faecalis (R 2), Mueller-Hinton broth, 37° C., 18 hours; read-out: Minimal Inhibitory Concentration (MIC)
Procedure: as §1, §2, §3, §4, §5, §6

[5] = tested on: Streptococcus faecalis (518); assay: MIC in broth, Gram+ strains; details: Enterococcus faecalis; S. faecalis (518), Mueller-Hinton broth, 37° C., 18 hours; read-out: Minimal Inhibitory Concentration (MIC)
Procedure: as §1, §2, §3, §4, §5, §6

[6] = tested on: Staphylococcus aureus (ATCC 14154); assay: MIC in broth, Gram+ strains; details: ATCC14154, S. aureus (ATCC 14154), Mueller-Hinton broth, 37° C., 18 hours, read-out: Minimal Inhibitory Concentration (MIC)
Procedure: as §1, §2, §3, §4, §5, §6

[7] = tested on: Streptococcus faecalis (516); assay: MIC in broth, Gram+ strains; details: Enterococcus faecalis; S. faecalis (516), Mueller-Hinton broth, 37° C., 18 hours; read-out: Minimal Inhibitory Concentration (MIC)
Procedure: as §1, §2, §3, §4, §5, §6

[8] = tested on: Bacillus subtilis (ATCC 6051); assay: MIC in broth, Gram+ strains; details: ATCC6051, B. subtilis (ATCC 6051), Mueller-Hinton broth, 37° C., 18 hours, read-out: Minimal Inhibitory Concentration (MIC)
Procedure: as §1, §2, §3, §4, §5, §6

[9] = tested on: Streptococcus faecalis (509); assay: MIC in broth, Gram+ strains; details: Enterococcus faecalis; S. faecalis (509), Mueller-Hinton broth, 37° C., 18 hours; read-out: Minimal Inhibitory Concentration (MIC)
Procedure: as §1, §2, §3, §4, §5, §6

[10] = tested on: Staphylococcus aureus (LC1); assay: MIC in broth, Gram+ strains; details: S. aureus (LC1), Mueller-Hinton broth, 37° C., 18 hours, read-out: Minimal Inhibitory Concentration (MIC)
Procedure: as §1, §2, §3, §4, §5, §6

[11] = tested on: Streptococcus faecalis (UM); assay: MIC in broth, Gram+ strains; details: Enterococcus faecalis; S. faecalis (UM), Mueller-Hinton broth, 37° C., 18 hours; read-out: Minimal Inhibitory Concentration (MIC)
Procedure: as §1, §2, §3, §4, §5, §6

[12] = tested on: Bacillus pumilus (CN 607); assay: MIC in broth, Gram+ strains; details: B. pumilus (CN 607), Mueller-Hinton broth, 37° C., 18 hours, read-out: Minimal Inhibitory Concentration (MIC)
Procedure: as §1, §2, §3, §4, §5, §6

[13] = tested on: Staphylococcus aureus (306 MR); assay: MIC in broth, Gram+ strains; details: S. aureus (306 MR), Mueller-Hinton broth, 37° C., 18 hours, read-out: Minimal Inhibitory Concentration (MIC)
Procedure: as §1, §2, §3, §4, §5, §6

[14] = tested on: Streptococcus faecalis (505); assay: MIC in broth, Gram+ strains; details: Enterococcus faecalis; S. faecalis (505), Mueller-Hinton broth, 37° C., 18 hours; read-out: Minimal Inhibitory Concentration (MIC)
Procedure: as §1, §2, §3, §4, §5, §6

Gram+ bacterial strains = assay: Mean MIC in broth and resistant strain number, Gram+ strains; details: 18 h, versus susceptible strains
Procedure: as §1, §2, §3, §4, §5, §6

Gram- bacterial strains = assay: Mean MIC in broth and resistant strain number, Gram- strains; details: 18 h, read-out: Mean MIC values
Procedure: as §3, §4, §5
(§7) Evaluation of the Minimal Inhibitory Concentration (MIC) in broth of 16 new substances for Gram- bacterial strains.
(§8) The following strains were used: Enterobacter (1), Escherichia (3), Klebsiella (3), Proteus (3); Pseudomonas (2); Salmonella (2), Serratia (1).

Escherichia coli (92 F) = assay: MIC in broth, Gram- strains; details: 18 h, E. coli (92 F), read-out: Minimal Inhibitory Concentration (MIC)
Procedure: as §3, §4, §5, §7, §8

[15] = tested on: Pseudomonas aeruginosa (3 E); assay: MIC in broth, Gram- strains; details: 18 h, read-out: Minimal Inhibitory Concentration (MIC)
Procedure: as §3, §4, §5, §7, §8

Escherichia coli (R 57B) = assay: MIC in broth, Gram- strains; details: 18 h, E. coli (R 57B), read-out: Minimal Inhibitory Concentration (MIC)
Procedure: as §3, §4, §5, §7, §8

Proteus vulgaris (UM) = assay: MIC in broth, Gram- strains; details: 18 h, read-out: Minimal Inhibitory Concentration (MIC)
Procedure: as §3, §4, §5, §7, §8

[16] = tested on: Klebsiella pneumoniae (7823); assay: MIC in broth, Gram- strains; details: 18 h, read-out: Minimal Inhibitory Concentration (MIC)
Procedure: as §3, §4, §5, §7, §8

Proteus mirabilis (32) = assay: MIC in broth, Gram- strains; details: 18 h, read-out: Minimal Inhibitory Concentration (MIC)
Procedure: as §3, §4, §5, §7, §8

[17] = tested on: Pseudomonas aeruginosa (10 E); assay: MIC in broth, Gram- strains; details: 18 h, read-out: Minimal Inhibitory Concentration (MIC)
Procedure: as §3, §4, §5, §7, §8

[18] = tested on: Klebsiella aerogenes (SH 1082); assay: MIC in broth, Gram- strains; details: 18 h, read-out: Minimal Inhibitory Concentration (MIC)
Procedure: as §3, §4, §5, §7, §8

Klebsiella oxytoca (552) = assay: MIC in broth, Gram- strains; details: 18 h, read-out: Minimal Inhibitory Concentration (MIC)
Procedure: as §3, §4, §5, §7, §8

[19] = tested on: Salmonella typhimurium (D.S.); assay: MIC in broth, Gram- strains; details: Salmonella enterica, 18 h, read-out: Minimal Inhibitory Concentration (MIC)
Procedure: as §3, §4, §5, §7, §8

Proteus morganii (D.S.) = assay: MIC in broth, Gram- strains; details: Morganella morganii, 18 h, read-out: Minimal Inhibitory Concentration (MIC)
Procedure: as §3, §4, §5, §7, §8

Salmonella typhi (J) = assay: MIC in broth, Gram- strains; details: Salmonella enterica, 18 h, read-out: Minimal Inhibitory Concentration (MIC)
Procedure: as §3, §4, §5, §7, §8

Compound: CCCCCCCCCCCOC(=O)CC(C[N+](C)(C)C)OC(=O)CCC(C)C (centres unmarked) [ST 1034]
- MIC [1]: 1.56 µg/mL
- MIC [2]: 3.12 µg/mL
- MIC [3]: 1.56 µg/mL
- MIC [4]: 1.56 µg/mL
- MIC [5]: 1.56 µg/mL
- MIC [6]: 3.12 µg/mL
- MIC [7]: 1.56 µg/mL
- MIC [8]: 3.12 µg/mL
- MIC [9]: 1.56 µg/mL
- MIC [10]: 1.56 µg/mL
- MIC [11]: 1.56 µg/mL
- MIC [12]: 1.56 µg/mL
- MIC [13]: 3.12 µg/mL
- MIC [14]: 1.56 µg/mL
- MIC (Gram+ bacterial strains): 2 µg/mL
- MIC (Gram- bacterial strains; Gram- strains, versus susceptible strains): 45 µg/mL
- MIC (Escherichia coli (92 F)): 25 µg/mL
- MIC [15]: 50 µg/mL
- MIC (Escherichia coli (R 57B)): 50 µg/mL
- MIC (Proteus vulgaris (UM)): > 100 µg/mL
- MIC [16]: 12.5 µg/mL
- MIC (Proteus mirabilis (32)): > 100 µg/mL
- MIC [17]: 50 µg/mL
- MIC [18]: 25 µg/mL
- MIC (Klebsiella oxytoca (552)): 12.5 µg/mL
- MIC [19]: 100 µg/mL
- MIC (Proteus morganii (D.S.)): 100 µg/mL
- MIC (Salmonella typhi (J)): 25 µg/mL

Compound: CCCCCCCCCCCOC(=O)CC(C[N+](C)(C)C)OC(=O)CCCCCC (centres unmarked) [ST 1036]
- MIC [1]: 1.56 µg/mL
- MIC [2]: 3.12 µg/mL
- MIC [3]: 3.12 µg/mL
- MIC [4]: 3.12 µg/mL
- MIC [5]: 3.12 µg/mL
- MIC [6]: 3.12 µg/mL
- MIC [7]: 3.12 µg/mL
- MIC [8]: 3.12 µg/mL
- MIC [9]: 1.56 µg/mL
- MIC [10]: 1.56 µg/mL
- MIC [11]: 1.56 µg/mL
- MIC [12]: 1.56 µg/mL
- MIC [13]: 3.12 µg/mL
- MIC [14]: 1.56 µg/mL
- MIC (Gram+ bacterial strains): 2.45 µg/mL
- MIC (Gram- bacterial strains): 60.7 µg/mL
- MIC (Escherichia coli (92 F)): 25 µg/mL
- MIC [15]: 100 µg/mL
- MIC (Escherichia coli (R 57B)): > 100 µg/mL
- MIC (Proteus vulgaris (UM)): > 100 µg/mL
- MIC [16]: 12.5 µg/mL
- MIC (Proteus mirabilis (32)): > 100 µg/mL
- MIC [17]: > 100 µg/mL
- MIC [18]: 100 µg/mL
- MIC (Klebsiella oxytoca (552)): 50 µg/mL
- MIC [19]: > 100 µg/mL
- MIC (Proteus morganii (D.S.)): > 100 µg/mL
- MIC (Salmonella typhi (J)): 25 µg/mL
